Reference: US9169241B2, “Quinolinyloxyphenylsulfonamides” (Max-Planck-Gesellschaft Zur Forderung der Wissenschaften …, priority 2009, dated 2015)

Target: T1, wild type AXL (wtAXL) receptor tyrosine kinase (Homo sapiens, UniProt P30530)
T1 construct: WtAXL cDNA was cloned into vector pLXSN(ESK) and transfected into Phoenix E packaging cells; expressed in transfected cells; host or cells: NIH3T3 N7 (mouse fibroblasts), retrovirally infected, clone 22
T1 sequence (P30530 26-894): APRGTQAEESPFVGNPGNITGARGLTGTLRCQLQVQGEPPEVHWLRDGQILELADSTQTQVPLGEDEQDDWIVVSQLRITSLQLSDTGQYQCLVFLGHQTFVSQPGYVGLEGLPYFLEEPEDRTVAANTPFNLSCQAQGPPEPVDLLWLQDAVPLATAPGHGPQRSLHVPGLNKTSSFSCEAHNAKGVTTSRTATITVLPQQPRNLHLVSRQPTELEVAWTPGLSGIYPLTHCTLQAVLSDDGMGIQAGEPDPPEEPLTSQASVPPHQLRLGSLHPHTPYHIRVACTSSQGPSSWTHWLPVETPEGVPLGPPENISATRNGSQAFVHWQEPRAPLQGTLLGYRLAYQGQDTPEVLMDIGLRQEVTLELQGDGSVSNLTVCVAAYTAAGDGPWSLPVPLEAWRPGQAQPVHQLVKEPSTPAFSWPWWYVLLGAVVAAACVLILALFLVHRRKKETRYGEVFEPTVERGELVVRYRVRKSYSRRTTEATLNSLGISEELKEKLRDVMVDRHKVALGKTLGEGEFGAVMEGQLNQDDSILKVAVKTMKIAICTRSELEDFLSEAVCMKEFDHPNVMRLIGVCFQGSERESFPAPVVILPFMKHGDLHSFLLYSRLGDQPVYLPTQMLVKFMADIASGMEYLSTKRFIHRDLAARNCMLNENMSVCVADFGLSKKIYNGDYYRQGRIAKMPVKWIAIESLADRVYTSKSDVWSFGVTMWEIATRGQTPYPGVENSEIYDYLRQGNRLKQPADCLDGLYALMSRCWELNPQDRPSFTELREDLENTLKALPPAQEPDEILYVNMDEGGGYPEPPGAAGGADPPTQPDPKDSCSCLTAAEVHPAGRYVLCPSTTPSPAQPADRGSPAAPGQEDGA
Assay: NIH-3T3-AXL cellular kinase assay (pY-AXL-ELISA)
Format: cell-based
Conditions: NIH-3T3-AXL (clone 22) cells, serum depleted, compounds 1 h; Table Ia
Procedure, shortened: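 Phospho-AXL was quantified by ELISA in lysates (4G10-biotin, streptavidin-AP, AttoPhos, 430/560 nm read at 90 min). The cells were monoclonal NIH3T3 lines stably transduced with human wtAXL, exposed to serial compound dilutions for 1 h before lysis.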

Structure (SMILES) | IC50 [µM]
COC(=O)c1sccc1S(=O)(=O)Nc1ccc(Oc2ccnc3cc(OCCCN4CCC(C)CC4)c(OC)cc23)c(F)c1 [Example 156, 3-(3-Fluoro-4-{6-methoxy-7-[3-(4-methyl-piperidin-1-yl)-propoxy]-quinolin-4-yloxy}-phenylsulfamoyl)-thiophene-2-carboxylic acid methyl ester] | < 0.5
COc1cc2c(Oc3ccc(NS(=O)(=O)c4cc(F)ccc4F)cc3Cl)ccnc2cc1OCCCN1CCN(C)CC1 [Example 112, N-(3-Chloro-4-{6-methoxy-7-[3-(4-methyl-piperazin-1-yl)-propoxy]-quinolin-4-yloxy}-phenyl)-2,5-difluoro-benzenesulfonamide] | < 0.5
COc1cc2c(Oc3ccc(NS(=O)(=O)c4cccc(Cl)c4F)cc3F)ccnc2cc1OCCCN1CCCC(C)C1 (stereo not drawn) [Example 54, 3-Chloro-2-fluoro-N-(3-fluoro-4-{6-methoxy-7-[3-(3-methyl-piperidin-1-yl)-propoxy]-quinolin-4-yloxy}-phenyl)-benzenesulfonamide] | < 0.5
COc1cc2c(Oc3ccc(NS(=O)(=O)c4c(F)cccc4F)cc3F)ccnc2cc1OCCCN1CCN(C)CC1 [Example 110, 2,6-Difluoro-N-(3-fluoro-4-{6-methoxy-7-[3-(4-methyl-piperazin-1-yl)-propoxy]-quinolin-4-yloxy}-phenyl)-benzenesulfonamide] | < 0.5
COc1cc2c(Oc3c(Cl)cc(NS(=O)(=O)c4c(F)cccc4F)cc3Cl)ccnc2cc1OCCCN1CCC(C)CC1 [Example 209, N-(3,5-Dichloro-4-{6-methoxy-7-[3-(4-methyl-piperidin-1-yl)-propoxy]-quinolin-4-yloxy}-phenyl)-2,6-difluoro-benzenesulfonamide] | < 0.5
COc1cc2c(Oc3ccc(NS(=O)(=O)c4ccccc4[N+](=O)[O-])cc3F)ccnc2cc1OCCCN1CCCC(C)C1 (stereo not drawn) [Example 40, N-(3-Fluoro-4-{6-methoxy-7-[3-(3-methyl-piperidin-1-yl)-propoxy]-quinolin-4-yloxy}-phenyl)-2-nitro-benzenesulfonamide] | < 0.5
COc1cc2c(Oc3ccc(NS(=O)(=O)c4c(F)cccc4F)cc3F)ccnc2cc1OCCCN(C)C [Example 178, N-{4-[7-(3-Dimethylamino-propoxy)-6-methoxy-quinolin-4-yloxy]-3-fluoro-phenyl}-2,6-difluoro-benzenesulfonamide] | < 0.5
COC(=O)c1sccc1S(=O)(=O)Nc1ccc(Oc2ccnc3cc(OCCCN4CCOCC4)c(OC)cc23)c(F)c1 [Example 157, 3-{3-Fluoro-4-[6-methoxy-7-(3-morpholin-4-yl-propoxy)-quinolin-4-yloxy]-phenylsulfamoyl}-thiophene-2-carboxylic acid methyl ester] | < 0.5
COc1cc2c(Oc3ccc(NS(=O)(=O)c4c(Cl)cccc4Cl)cc3F)ccnc2cc1OCCCN1CCCCC1 [Example 6, 2,6-Dichloro-N-{3-fluoro-4-[6-methoxy-7-(3-piperidin-1-yl-propoxy)-quinolin-4-yloxy]-phenyl}-benzenesulfonamide] | < 0.5
COc1cc2c(Oc3ccc(NS(=O)(=O)c4ccccc4OC(F)(F)F)cc3F)ccnc2cc1OCCCN(C)C [Example 179, N-{4-[7-(3-Dimethylamino-propoxy)-6-methoxy-quinolin-4-yloxy]-3-fluoro-phenyl}-2-trifluoromethoxy-benzenesulfonamide] | < 0.5
COC(=O)c1sccc1S(=O)(=O)Nc1ccc(Oc2ccnc3cc(OCCCN4CCN(C)CC4)c(OC)cc23)c(F)c1 [Example 158, 3-(3-Fluoro-4-{6-methoxy-7-[3-(4-methyl-piperazin-1-yl)-propoxy]-quinolin-4-yloxy}-phenylsulfamoyl)-thiophene-2-carboxylic acid methyl ester] | < 0.5
COc1cc2c(Oc3ccc(NS(=O)(=O)c4c(Cl)cccc4Cl)cc3F)ccnc2cc1OCCCN(C)C [Example 181, 2,6-Dichloro-N-{4-[7-(3-dimethylamino-propoxy)-6-methoxy-quinolin-4-yloxy]-3-fluoro-phenyl}-benzenesulfonamide] | < 0.5
COC(=O)c1sccc1S(=O)(=O)Nc1ccc(Oc2ccnc3cc(OCCCN4CCCC(C)C4)c(OC)cc23)c(F)c1 (stereo not drawn) [Example 66, 3-(3-Fluoro-4-{6-methoxy-7-[3-(3-methyl-piperidin-1-yl)-propoxy]-quinolin-4-yloxy}-phenylsulfamoyl)-thiophene-2-carboxylic acid methyl ester] | < 0.5
COc1cc2c(Oc3ccc(NS(=O)(=O)c4c(F)cccc4F)cc3F)ccnc2cc1OCCCN1CCCCC1 [Example 11, 2,6-Difluoro-N-{3-fluoro-4-[6-methoxy-7-(3-piperidin-1-yl-propoxy)-quinolin-4-yloxy]-phenyl}-benzenesulfonamide] | < 0.5
COc1cc2c(Oc3ccc(NS(=O)(=O)c4ccccc4OC(F)(F)F)cc3F)ccnc2cc1OCCCN1CCCCC1 [Example 78, N-{3-Fluoro-4-[6-methoxy-7-(3-piperidin-1-yl-propoxy)-quinolin-4-yloxy]-phenyl}-2-trifluoromethoxy-benzenesulfonamide] | < 0.5
COC(=O)c1sccc1S(=O)(=O)Nc1ccc(Oc2ccnc3cc(OCCCN4CCCCC4)c(OC)cc23)c(F)c1 [Example 155, 3-{3-Fluoro-4-[6-methoxy-7-(3-piperidin-1-yl-propoxy)-quinolin-4-yloxy]-phenylsulfamoyl}-thiophene-2-carboxylic acid methyl ester] | < 0.5
COc1cc2c(Oc3ccc(NS(=O)(=O)c4c(Cl)cccc4Cl)cc3F)ccnc2cc1OCCCN1CCCC(C)C1 (stereo not drawn) [Example 51, 2,6-Dichloro-N-(3-fluoro-4-{6-methoxy-7-[3-(3-methyl-piperidin-1-yl)-propoxy]-quinolin-4-yloxy}-phenyl)-benzenesulfonamide] | < 0.5
COc1cc2c(Oc3ccc(NS(=O)(=O)c4c(Cl)cccc4Cl)cc3F)ccnc2cc1OCCN1CCOCC1 [Example 104, 2,6-Dichloro-N-{3-fluoro-4-[6-methoxy-7-(2-morpholin-4-yl-ethoxy)-quinolin-4-yloxy]-phenyl}-benzenesulfonamide] | < 0.5
COc1cc2c(Oc3c(Cl)cc(NS(=O)(=O)c4ccccc4C(F)(F)F)cc3Cl)ccnc2cc1OCCCN1CCC(C)CC1 [Example 210, N-(3,5-Dichloro-4-{6-methoxy-7-[3-(4-methyl-piperidin-1-yl)-propoxy]-quinolin-4-yloxy}-phenyl)-2-trifluoromethyl-benzenesulfonamide] | < 0.5
COC(=O)c1sccc1S(=O)(=O)Nc1ccc(Oc2ccnc3cc(OCCCN(C)C)c(OC)cc23)c(F)c1 [Example 184, 3-{4-[7-(3-Dimethylamino-propoxy)-6-methoxy-quinolin-4-yloxy]-3-fluoro-phenylsulfamoyl}-thiophene-2-carboxylic acid methyl ester] | < 0.5
COc1cc2c(Oc3ccc(NS(=O)(=O)c4ccc(F)c(F)c4F)cc3F)ccnc2cc1OCCCN1CCCC(C)C1 (stereo not drawn) [Example 49, 2,3,4-Trifluoro-N-(3-fluoro-4-{6-methoxy-7-[3-(3-methyl-piperidin-1-yl)-propoxy]-quinolin-4-yloxy}-phenyl)-benzenesulfonamide] | < 0.5
COc1cc2c(Oc3ccc(NS(=O)(=O)c4c(Cl)cccc4Cl)cc3Cl)ccnc2cc1OCCCN1CCN(C)CC1 [Example 119, 2,6-Dichloro-N-(3-chloro-4-{6-methoxy-7-[3-(4-methyl-piperazin-1-yl)-propoxy]-quinolin-4-yloxy}-phenyl)-benzenesulfonamide] | < 0.5
COc1cc2c(Oc3ccc(NS(=O)(=O)c4ccccc4OC(F)(F)F)cc3F)ccnc2cc1OCCCN1CCCC(C)C1 (stereo not drawn) [Example 45, N-(3-Fluoro-4-{6-methoxy-7-[3-(3-methyl-piperidin-1-yl)-propoxy]-quinolin-4-yloxy}-phenyl)-2-trifluoromethoxy-benzenesulfonamide] | < 0.5

Tested on: C8161
Assay: Apoptosis assay (Cellomics, nucleus condensation)
Format: cell-based
Conditions: Homo sapiens, Table III, read-out: Apoptosis induction in C8161
Procedure, shortened: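 5000 cells/well, Hoechst 33342 live stain; cpd 12.5, 6.25, 3.125, 1.56, 0.78, 0.39 μM or DMSO; imaged 24 h + 48 h; nuclear condensation = intensity variation per nucleus; cell number loss noted.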

Structure (SMILES) | IC50 [µM]
COc1cc2c(Oc3ccc(NS(=O)(=O)c4ccccc4C(F)(F)F)cc3F)ccnc2cc1OCCCN1CCN(C)CC1 [Example 24, N-(3-Fluoro-4-{6-methoxy-7-[3-(4-methyl-piperazin-1-yl)-propoxy]-quinolin-4-yloxy}-phenyl)-2-trifluoromethyl-benzenesulfonamide] | ≤ 12.5
